Literature values in patent US20230248672A1, “COMPOSITIONS COMPRISING GARDOS CHANNEL ANTAGONISTS AND THEIR USES” (ADIMABIO LLC, priority 2020, published 2023).
Values after ≈ are worked out from the molar mass of the structure shown.

Key:
Gardos channel = Gardos channel (Homo sapiens, UniProt O15554)
[1] = tested on: sickle cell disease patients
[2] = not given; remark: listed apart in the source
[3] = rats, administered orally
[4] = not given; remark: listed apart in the source

aqueous solubility [µg/mL]	oral bioavailability [2] [%]	block of potassium efflux through the Gardos channel (Gardos channel; red blood cells)	time at which maximum concentration is attained [3] [h]	log P [4]	SMILES	inhibition of the Gardos channel (Gardos channel; normal and sickle erythrocytes)	rate of sickle cell painful crises ([1]; compared to placebo)	tolerability ([1]; dose of 10 mg, sickle cell disease patients)	hemoglobin ([1]; sickle cell disease patients)	markers of hemolysis ([1]; sickle cell disease patients)
					Clc1ccccc1C(c1ccccc1)(c1ccccc1)n1ccnc1 [Clotrimazole]	specific, potent inhibitor				
975 (≈ 3.02 mM)	51	selectively blocks	4	3.59	NC(=O)C(c1ccccc1)(c1ccc(F)cc1)c1ccc(F)cc1 [senicapoc, 2,2-bis(4-fluorophenyl)-2-phenylacetamide]		no significant improvement	well tolerated	dose-dependent increase	decrease
